Laboratory results reported in patent US9266813B2, “Stilbenoid compound as inhibitor for squamous carcinoma and hepatoma and uses thereof” (AnnCare Bio-Tech Center Inc., priority 2013, dated 2016).
pIC50: −log10 of the molar value. Values after ≈ are worked out from the molar mass of the structure shown. Read-outs that look alike come from different tables or passages of the source.

Assays:
Water solubility assay = type: physicochemical; conditions: read-out: Water solubility, Content
Source text: The water solubility of the compounds of the present invention can be determined by methods known in the art and the result is shown in Table 3.

CAR xenograft = assay: Xenograft antitumor study in CAR xenograft nude mice; type: in vivo, BALB/c nude mice
Source text: All animal experiments of the invention complied with institutional guidelines (Affidavit of Approval of Animal Use Protocol) approved by the Institutional Animal Care and Use Committee (IACUC) of China Medical University (Taichung, Taiwan). All pathogen-free four-week-old male BALB/c nude mice were purchased from the National Laboratory Animal Center (Taipei, Taiwan). These animals were housed at a constant room temperature with a regular 12-hour light/12-hour dark cycle and hereafter fed a standard rodent diet and water ad libitum.
The CAR cells (1×10^7 cells/mouse) in 0.2 mL (1:1) cultural medium and Matrigel (BD Biosciences) were subcutaneously injected into the flank of nude mice. When xenograft tumors reached approximately 50 mm^3 (at day 22 after cell inoculation), thirty two mice were randomly divided into four groups with eight mice in each group. The experimental group were given oral treatments included compound 2-4 at the dosages of 25, 50 and 100 mg/kg body weight, respectively, using an everyday 30 times (dosing regimen: QD×30, p.o.); whereas control group were given orally with 30 μL of DMSO throughout the experimental period. The tumor size (mm^3) from each mouse was determined utilizing a caliper by calculating as 0.5×length×(width)^2. At the end of treatment, all animals were anaesthetized by carbon dioxide (CO2) and sacrificed on 31st day. The tumor tissues from each mouse were removed then measured and weighed individually as previously reported.
Compound 2-4 was evaluated in the CAR xenograft nude mice by oral route (p.o.) at dose of 25, 50, and 100 mg/kg/day in a schedule of QD×30. […] At the 100 mg/kg/day dose of compound 2-4, the weight of CAR tumor was reduced down to 22% that of the vehicle control (FIG. 5).

CAR cells = assay: MTT assay, antiproliferation on cisplatin-resistant head and neck squamous carcinoma (CAR) cells; type: cell-based, human
Method: The human head and neck carcinoma cell line CAL27 was obtained from American Tissue Culture Collection (ATCC). The cisplatin-resistant cell line CAR (CAL27-cisplatin resistance) was established by clonal selection of CAL27 using 10 cycles of 1 passage treatment with 10-80 μM of cisplatin (Sigma-Aldrich Corp. (St. Louis, Mo., USA) followed by a recovery period of another passage. CAR cells were cultivated in Dulbecco's modified Eagle's medium (DMEM) supplemented with 10% FBS, 100 μg/mL streptomycin, 100 U/mL penicillin G, 2 mM L-glutamine (Gibco by Life Technologies (Carlsbad, Calif., USA)) and 80 μM of cisplatin (Sigma-Aldrich Corp. (St. Louis, Mo., USA).
(§1) Antiproliferations of compound 2-4 were determined by an improved MTT assay. The CAR cells were individually plated at a density of 2×10^4 cells/well onto 96-well plates and treated with Dimethyl sulfoxide (DMSO) alone (0.5% (v/v) in media served as a vehicle control) and various concentrations (0, 25, 50, 75 and 100 μM) of compound 2-4 for 24 and 48 hours. Following the above treatments, the supernatant was discarded before a 100 μL solution of MTT (500 μg/ml) was added to each well for 4 hours at 37 °C. After incubation, the medium was replaced by the addition of 200 μL DMSO to solubilize the violet formazan crystal produced from MTT. The absorbance of the dissolved formazan grained within the cells was measured at 570 nm by a microplate reader to calculate viability (data shown as % of control).
(§2) Please refer to Table 1. Hep3B cells and CAR cells were treated by different concentrations of the compounds of the invention for 48 and 72 hours, and the antiprolifieration effect of such compounds was evaluated using MTT assay. Data are presented as IC50 (μM), the concentration of 50% proliferation-inhibitory effect.
MTT assay was utilized and CAR cells were treated with compound 2-4 in different concentration for 24, 48 and 72 hours. […] The IC50 after 72 hours of treatment was 50 μM.

[1] = tested on: Human normal gingival fibroblasts cells (HGF); assay: MTT viability of normal gingival fibroblasts (HGF); type: cell-based; conditions: 0, 25, 50 and 100 μM, 72 hours, FIG. 7 (A)
Method: (§3) Human normal gingival fibroblasts cells (HGF) and human normal oral keratinocyte cells (OK) were acquired from Department of Dental Hygiene, China Medical University, Taiwan. HGF and OK were cultivated in DMEM.
(§4) Both HGF and OK cells (1×10^4 cells) were placed into a 96-well plate and were incubated with 0, 25, 50 and 100 μM of compound 2-4 for 24, 48 and 72 hours. For incubation with the autophagy inhibitor, cells were pretreated with […] (3-MA, 10 mM) for 1 hour, followed by treatment with or without compound 2-4 (50 and 75 μM) for 48 hours. After washing the cells, DMEM containing MTT (0.5 mg/mL) was added to detect viability. The cell viability was expressed as % of the control.
(§5) In FIG. 7, (A) indicates HGF cells and (B) indicates OK cells after exposure to various concentrations of compound 2-4 for 72 hours. The cell viability is determined by MTT assay and the data shown represent the mean±S.E.M (n=3).

[2] = tested on: human normal oral keratinocyte cells (OK); assay: MTT viability of normal oral keratinocytes (OK); type: cell-based; conditions: 0, 25, 50 and 100 μM, 72 hours, FIG. 7 (B)
Method: as §3, §4, §5

Hep3B cells = assay: MTT assay, antiproliferation on Hep3B cells; type: cell-based
Method: as §1, §2
The anti-proliferative ability of compound 2-4 in hepatocellular carcinoma was evaluated in Hep3B cells using MTT assay. Hep3B cells were treated with various concentrations of compound 2-4 for 48 and 72 hours.

[3] = Biochemical analysis of blood of CAR xenograft mice after 30 days of treatment; type: in vivo, BALB/c nude mice
Method: All mice were monitored the relative toxicity of each group after the animals were sacrificed, and whole blood samples were drawn from the heart for biochemical measurements to evaluate the safety of compound 2-4. Briefly, blood was collected from each mouse and allowed to clot and centrifuged at 1000×g for 10 minutes at room temperature for further biochemical tests including total protein, albumin, creatinine, blood urea nitrogen (BUN), uric acid and glucose.
Furthermore, after 30 days of treatment, these mice were sacrificed and their blood samples were collected for biochemical quantification of total protein, albumin, creatinine, blood urea nitrogen, uric acid and glucose.

[4] = 25 mg/kg p.o. QD×30, mean ± S.E.M.
[5] = 50 mg/kg p.o. QD×30, mean ± S.E.M.
[6] = 100 mg/kg p.o. QD×30, mean ± S.E.M.

For `COc1cc(/C=C/c2ccc(OC(=O)C(C)(CO)CO)cc2)cc(OC)c1` [Compound 2-4, 4-(3,5-dimethoxystyryl)phenyl-3-hydroxy-2-(hydroxymethyl)-2-methylpropanoate], which solubility (Water solubility assay) is on record?
Its solubility is 18 µg/mL (≈ 48.3 µM).

What about the tumor growth suppression (CAR xenograft; p.o. 25 mg/kg/day, QD×30) of the same compound?
The tumor growth suppression was “Significant tumor growth suppression”.

And the “weight of CAR tumor relative to vehicle control” value (CAR xenograft; p.o. 100 mg/kg/day, QD×30, FIG. 5)?
The value was 22%.

What about the “effect on CAR tumor weight” value (CAR xenograft; p.o. 25, 50, 100 mg/kg/day, QD×30, FIG. 5) of the same compound?
The value was “dose-dependent inhibitory effect”.

And the body weight change (CAR xenograft; p.o. 25, 50, 100 mg/kg/day, QD×30, FIG. 6)?
Its body weight change is “no significant body weight change”.

And the “effect on CAR tumor size” value (CAR xenograft; p.o. 25, 50, 100 mg/kg/day, QD×30, FIGS. 3 and 4)?
The value was “dose-dependent inhibitory effect”.

What about the “antiproliferative effect on CAR cells” value (CAR cells; 24, 48 and 72 hours, FIG. 1) of the same compound?
The value was “concentration- and time-dependent antiproliferative effect”.

And the IC50 (CAR cells; Homo sapiens, CAR cells, MTT, 48 hours, read-out: CAR (IC50 (μM)) 48 hours)?
The IC50 was 73 µM.

What about the pIC50 (CAR cells; Homo sapiens, CAR cells, MTT, 72 hours, Example 18 text, read-out: IC50 after 72 hours of treatment (FIG. 1)) of the same compound?
The pIC50 was 4.30.

And the IC50 (CAR cells; Homo sapiens, CAR cells, MTT, 72 hours, read-out: CAR (IC50 (μM)) 72 hours)?
The IC50 was 45.2 µM.

What about the “cell viability of HGF cells” value [1] of the same compound?
Its value is “no viability impact is observed”.

And the “cell viability of OK cells” value [2]?
Its value is “no viability impact is observed”.

What about the “inhibition on cell viability in Hep3B cells” value (Hep3B cells; 48 and 72 hours, FIG. 2) of the same compound?
The value was “concentration-dependent inhibition on cell viability”.

What about the “anticancer activity compared with resveratrol and pterostilbene” value (Hep3B cells; Hep 3B and CAR cells, Table 1) of the same compound?
The value was “more potent anticancer activity than resveratrol and pterostilbene”.

What about the pIC50 (Hep3B cells; Homo sapiens, Hep3B cells, MTT, 48 hours, Example 19 text, read-out: IC50 after 48 hours of treatment (FIG. 2)) of the same compound?
Its pIC50 is 4.30.

What about the IC50 (Hep3B cells; Homo sapiens, Hep3B cells, MTT, 48 hours, read-out: Hep 3B (IC50 (μM)) 48 hours) of the same compound?
Its IC50 is 63.5 µM.

What about the IC50 (Hep3B cells; Homo sapiens, Hep3B cells, MTT, 72 hours, read-out: Hep 3B (IC50 (μM)) 72 hours) of the same compound?
The IC50 was 43.8 µM.

And the Albumin [3, 4]?
The Albumin was 3.666 ± 0.052 g/dL.

And the Blood urea nitrogen [3, 4]?
Its Blood urea nitrogen is 28.200 ± 5.784 mg/dL.

And the Creatinine [3, 4]?
Its Creatinine is 1.133 ± 0.109 mg/dL.

And the Glucose [3, 4]?
The Glucose was 181.333 ± 32.067 mg/dL.

What about the “Total Protein” value [3, 4] of the same compound?
The value was 5.383 ± 0.117 g/dL.

What about the Uric acid [3, 4] of the same compound?
Its Uric acid is 4.567 ± 0.784 mg/dL.

What about the Albumin [3, 5] of the same compound?
The Albumin was 3.417 ± 0.075 g/dL.

What about the Blood urea nitrogen [3, 5] of the same compound?
Its Blood urea nitrogen is 30.950 ± 1.265 mg/dL.

What about the Creatinine [3, 5] of the same compound?
The Creatinine was 0.910 ± 0.077 mg/dL.

What about the Glucose [3, 5] of the same compound?
The Glucose was 172.500 ± 6.504 mg/dL.

What about the “Total Protein” value [3, 5] of the same compound?
Its value is 5.583 ± 0.376 g/dL.

And the Uric acid [3, 5]?
The Uric acid was 5.450 ± 0.878 mg/dL.

What about the Albumin [3, 6] of the same compound?
Its Albumin is 3.400 ± 0.089 g/dL.

And the Blood urea nitrogen [3, 6]?
The Blood urea nitrogen was 29.250 ± 3.855 mg/dL.

What about the Creatinine [3, 6] of the same compound?
The Creatinine was 0.830 ± 0.128 mg/dL.

What about the Glucose [3, 6] of the same compound?
Its Glucose is 196.500 ± 8.643 mg/dL.

And the “Total Protein” value [3, 6]?
The value was 5.283 ± 0.194 g/dL.

And the Uric acid [3, 6]?
The Uric acid was 5.050 ± 1.882 mg/dL.

What about the “toxicity when orally administered” value ([3]; CAR xenograft mice, oral, 30 days) of the same compound?
Its value is “very low toxicity”.

What about the “blood analysis result versus vehicle control mice” value ([3]; after 30 days of oral treatment, Table 2) of the same compound?
The value was “no significant difference in blood analysis result”.
